Laboratory results published in patent publication US20250179047A1, “5-[7-(3,4-DIHYDRO-1H-ISOQUINOLINE-2-CARBONYL)-1,2,3,4 TETRAHYDROISOQUINOLIN-6-YL]-1H-PYRROLE-3-CARBOXAMIDE DERIVATIVES, PHARMACEUTICAL COMPOSITIONS CONTAINING THEM AND THEIR USES AS PRO-APOPTOTIC AGENTS” (LES LABORATOIRES SERVIER, priority 2022, published 2025).
Where two headings read alike, the source gives them in different places.

Experiments:
BCL2 G101V [1] = molecular target: BCL2 G101V (Homo sapiens, UniProt P10415, G101V); assay: TR-FRET competitive binding assay, BCL2 G101V; details: BCL2 G101V; Ki determined from IC50; read-out: TR_FRET EKI_Bcl2 G101V
Protocol: (§1) The relative binding potency of each compound was determined in a competitive binding assay using time resolved-fluorescence resonance energy transfer (TR-FRET). The method utilised a fluorescein labelled peptide derived from PUMA (5Flu-Ahx-[…]-NH2 wherein Ahx means 6-hexanoic acid monomer and the amino acid sequence is referred to as SEQ ID:01) which binds to a terbium labelled BCL2 or BCLXL protein. The degree of binding or corresponding compound inhibition can be quantified by the TR-FRET signal between the terbium donor and fluorescein acceptor.
(§2) The human BCL2_wild-type (also named BCL2_wt), BCL2_G101V mutant and BCLXL_wild-type were E. coli expressed as a N-terminal Halo-fusion proteins and singly labelled with Terbium on the Halo protein to afford the following amino acid sequences:
(§3) wherein the BCL2(1-207) sequence corresponds to UniProtKB® primary accession number P10415 and the BCLXL(2-196) sequence corresponds to UniProtKB® primary accession number Q07817-1.
(§4) The assay was performed in a 40 μL volume in white 384-standard well plates (Corning #3574). An 11-point serial dilution of each compound was prepared in DMSO and transferred directly to plate followed by addition of fluorescein labelled peptide and lastly protein. Final assay conditions were 0.5 nM BCL2_wt, BCL2_G101V, BCL2_D103Y, BCL2_F104I, BCL2_D111A or BCLXL_wt, 2 or 20 nM fluorescein labelled peptide, 50 mM Hepes pH 7.5, 150 mM NaCl, 0.5 mM TCEP (Tris(2-carboxyethyl)phosphine), 0.05% Tween 20, 5% DMSO. The mixture was incubated for 2 hours at 23° C.
(§5) TR-FRET measurements were performed on a Biotek Synergy Neo plate reader. TR-FRET was measured by excitation of the Terbium-donor at 340 nm and subsequent (delay time 100 μs) measurement of terbium and fluorescein emission at 495 nm and 520 nm, respectively, over a collection time of 300 μs. The TR-FRET signal was calculated as the emission-ratio at 520 nm over 495 nm.
(§6) The TR-FRET ratio readout for test compounds was normalized against 0% inhibition controls wells and 100% inhibition control wells. Test compound potency (IC50) was estimated by nonlinear regression using the sigmoidal dose-response (variable slope) using Xlfit 4 (IDBS, Guildford, Surrey, UK, model 205). Were the IC50 could not be determined the % inhibition at the highest tested concentration is given.
(§7) y=(A+((B−A)/(1+((C/x)^D))))
(§8) where y is the normalized TR-TRET ratio measurement for a given concentration of test compound, x is the concentration of test compound, A is the estimated efficacy (% inhibition) at infinite compound dilution, and B is the maximal efficacy (% inhibition). C is the IC50 value and D is the Hill slope coefficient.
(§9) The K1 values were determined from the IC50 values according to Cer et al, Nucleic Acids Res, 2009, July 1; 37 (WebServer issue): W441-W445.

BCL2 G101V [2] = assay: TR-FRET competitive binding assay, BCL2 G101V; set-up: species or system human; details: for TR_FRET EKI G101V/WT selectivty: ratio of Ki BCL2 G101V to BCL2 WT
Protocol: as §1, §2, §3, §4, §5, §6, §7, §8, §9

BCL2 D103Y = BCL2 D103Y (Homo sapiens, UniProt P10415, D103Y); assay: TR-FRET competitive binding assay, BCL2 D103Y; details: Ki determined from IC50, read-out: TR_FRET EKI_Bcl2 D103Y
Protocol: as §1, §2, §3, §4, §5, §6, §7, §8, §9

BCLXL WT = BCLXL WT (Homo sapiens (Human), UniProt Q07817); assay: TR-FRET competitive binding assay, BCLXL WT; details: for Ki: BCLXL WT, Ki determined from IC50, read-out: TR_FRET EKI BclxL; for TR_FRET EKI BCLxL/WT selectivty: ratio of Ki BCLxL to BCL2 WT
Chain of BCLXL WT (Q07817 other isoform, or with tags, fused parts or gaps): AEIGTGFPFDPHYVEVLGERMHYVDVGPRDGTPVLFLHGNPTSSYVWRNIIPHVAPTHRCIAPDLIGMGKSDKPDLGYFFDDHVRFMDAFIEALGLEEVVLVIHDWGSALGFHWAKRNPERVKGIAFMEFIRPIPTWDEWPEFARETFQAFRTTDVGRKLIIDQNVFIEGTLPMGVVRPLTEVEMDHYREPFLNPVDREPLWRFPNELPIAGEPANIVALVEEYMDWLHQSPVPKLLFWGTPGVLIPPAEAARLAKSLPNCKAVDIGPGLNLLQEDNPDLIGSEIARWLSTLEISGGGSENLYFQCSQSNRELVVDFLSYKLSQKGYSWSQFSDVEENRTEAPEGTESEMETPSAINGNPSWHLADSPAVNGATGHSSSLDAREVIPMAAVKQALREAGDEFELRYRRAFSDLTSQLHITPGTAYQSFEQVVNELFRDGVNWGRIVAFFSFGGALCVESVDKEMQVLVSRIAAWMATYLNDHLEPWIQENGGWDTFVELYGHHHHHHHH
Protocol: as §1, §2, §3, §4, §5, §6, §7, §8, §9

BCL2 WT = BCL2 WT (Homo sapiens (Human), UniProt P10415); assay: TR-FRET competitive binding assay, BCL2 WT
Protocol: as §1, §2, §3, §4, §5, §6, §7, §8, §9

[3] = Ki determined from IC50, read-out: TR_FRET EKI_Bcl2

Ki (BCL2 G101V [1]) [pM] | TR_FRET EKI G101V/WT selectivty (BCL2 G101V [2]) | Ki (BCL2 D103Y) [pM] | Ki (BCLXL WT) [pM] | TR_FRET EKI BCLxL/WT selectivty (BCLXL WT) | Ki (BCL2 WT; [3]) [pM] | TR_FRET EKI G101V/WT selectivty ratio (BCL2 G101V [2]; ratio Ki BCL2 G101V / Ki BCL2 WT) | TR_FRET EKI BCLxL/WT selectivty ratio (BCLXL WT; ratio Ki BCLxL / Ki BCL2 WT) | Ki (BCL2 WT; Ki determined from IC50, read-out: TR_FRET EKI_Bcl2 WT) [pM] | Compound
25600 | 233.0 | 140 | 23600 | 214.3 | 110 |  |  |  | Cc1cc(OCCN2CCOCC2)c(F)cc1CC(=O)N1CCc2cc(-c3cc(C(=O)N(c4ccccc4)c4cnn(C)c4)c(C)n3C)c(C(=O)N3Cc4ccccc4C[C@H]3C)cc2C1 [Example 225, 5-[2-[2-[5-fluoro-2-methyl-4-(2-morpholinoethoxy)phenyl]acetyl]-7-[(3R)-3-methyl-3,4-dihydro-1H-isoquinoline-2-carbonyl]-3,4-dihydro-1H-isoquinolin-6-yl]-1,2-dimethyl-N-(1-methylpyrazol-4-yl)-N-phenyl-pyrrole-3-carboxamide]
800 | 10.5 | 180 | 1300 | 17.7 | 73 |  |  |  | Cc1cc(OCCN2CCOCC2)c(F)cc1CC(=O)N1CCc2cc(-c3cc(C(=O)N(c4ccc(O)cc4)c4cc(C#N)n(C)c4C)c(C)n3C)c(C(=O)N3Cc4ccccc4C[C@H]3C)cc2C1 [Example 224, N-(5-cyano-1,2-dimethyl-pyrrol-3-yl)-5-[2-[2-[5-fluoro-2-methyl-4-(2-morpholinoethoxy)phenyl]acetyl]-7-[(3R)-3-methyl-3,4-dihydro-1H-isoquinoline-2-carbonyl]-3,4-dihydro-1H-isoquinolin-6-yl]-N-(4-hydroxyphenyl)-1,2-dimethyl-pyrrole-3-carboxamide]
5300 |  | 830 | 23200 |  |  | 4.8 | 21.1 | 1100 | Cc1c(N(C(=O)c2cc(-c3cc4c(cc3C(=O)N3Cc5ccccc5C[C@H]3C)CN(C(=O)C(F)(F)c3ccc(N5CCN(C)CC5)cc3)CC4)n(C)c2C)c2ccc(O)cc2)cc(C#N)n1C [Example 26, N-(5-cyano-1,2-dimethylpyrrol-3-yl)-5-(2-{2,2-difluoro-2-[4-(4-methylpiperazin-1-yl)phenyl]acetyl}-7-{[(3R)-3-methyl-3,4-dihydro-1H-isoquinolin-2-yl]carbonyl}-3,4-dihydro-1H-isoquinolin-6-yl)-N-(4-hydroxyphenyl)-1,2-dimethylpyrrole-3-carboxamide]
